US5458814A, “Substituted naphthopyrans” (Transitions Optical, Inc., priority 1993, dated 1995)

Test: Photochromic response on optical bench (lambda max, sensitivity, saturation optical density, bleach rate) of naphthopyrans imbibed into test square polymerizates
Assay type: physicochemical
Details: for BLEACH RATE T1/2: time for absorbance to reach one half the highest absorbance after removal of activating light, 75° F., 23.9° C.; for Δ OD @ SATURATION: UV exposure continued for 20 minutes; for Δ OD @ SATURATION / Δ OD/Min SENSITIVITY: diethylene glycol bis(allyl carbonate), 75° F. (23.9° C.); for Δ OD/Min SENSITIVITY: first five (5) seconds of UV exposure, expressed on a per minute basis; for LAMBDA MAX of the activated (colored) form in the visible spectrum: imbibed into diethylene glycol bis(allyl carbonate) composition
Procedure: Testing was done with selected photochromic naphthopyrans incorporated into test square polymerizates by one of two different imbibition processes. The test square polymerizates were prepared from a diethylene glycol bis(allyl carbonate) composition and measured 1/8 inch (0.3 centimeters)×2 inches (5.1 centimeters)×2 inches (5.1 centimeters). In one of the imbibition processes, the photochromic naphthopyran was dissolved to form a 10 weight percent solution in a 1:9 mixture of ethyl cellulose:toluene. The solution was then spin coated onto the test squares and allowed to dry. […] After cooling, the ethyl cellulose/toluene resin film was removed from the test squares by washing with acetone.
Alternatively, the test squares were imbibed by the following procedure. Each naphthopyran was dissolved into toluene to form a four (4) weight percent solution of the compound. A piece of No. 4 Whatman filter paper was saturated with the naphthopyran toluene solution and allowed to air dry. The dried filter paper was placed on one side of the test square. A piece of untreated filter paper was placed on the other side of the polymeric test square and the resulting sandwich was placed between two flat aluminum metal plates. […] After cooling, the test squares were washed with acetone.
The photochromic squares were tested for photochromic response rates on an optical bench. […] The bench was fitted with a 150 watt Xenon arc lamp, a remote controlled shutter, a copper sulfate bath acting as a heat sink for the arc lamp, a Schott WG-320 nm cut-off filter which removes short wavelength radiation; neutral density filter(s) and a sample holder in which the square to be tested was inserted. A collimated beam of light from a tungsten lamp was passed through the square at a small angle normal to the square. After passing through the square, the light from the tungsten lamp was directed through a photopic filter attached to a detector. The photopic filter passes wavelengths such that the detector mimics the response of the human eye. The output signals from the detector(s) were processed by a radiometer.
Change in optical density (ΔOD) was determined by inserting an imbibed square in the bleached state into the sample holder, adjusting the transmittance scale to 100%, opening the shutter from the Xenon lamp to provide ultraviolet radiation to change the imbibed square from the bleached state to an activated (i.e., darkened) state, measuring the transmittance in the activated state, and calculating the change in optical density according to the formula ΔOD=log(100% Ta) where % Ta is the percent transmittance in the activated state and the logarithm is to the base 10.
The ΔOD/Min, which represents the sensitivity of the photochromic compound's response to UV light, was measured over the first five (5) seconds of UV exposure, then expressed on a per minute basis. The saturation optical density (OD) was taken under identical conditions as the ΔOD/Min, except UV exposure was continued for 20 minutes for the examples in Table 1. The lambda max reported in Table 1 is the wavelength in the visible spectrum at which the maximum absorption of the activated (colored) form of the photochromic compound in a diethylene glycol bis(allyl carbonate) composition occurs.

Structure (SMILES)	BLEACH RATE T1/2 (Table 2 comparison) [min]	BLEACH RATE T1/2 (Table 1) [min]	Δ OD @ SATURATION	Δ OD/Min SENSITIVITY	LAMBDA MAX of the activated (colored) form in the visible spectrum [nm]
C1=CC(c2ccccc2)(c2ccccc2)Oc2c1ccc1ccccc21 [Comparative Example 1, 2,2-diphenyl-[2H]-naphtho[1,2-b]pyran, reference compound]	> 30	–	–	–	–
Cc1cc2ccccc2c2c1C=CC(c1ccccc1)(c1ccccc1)O2 [Comparative Example 2, 2,2-diphenyl-5-methyl-[2H]-naphtho[1,2-b]pyran, reference compound]	10.7	–	–	–	–
C1=CC2(Oc3c1ccc1ccccc31)C1CC3CC(C1)CC2C3 (centres unmarked) [Comparative Example 3, 2,2-spiroadamantylene-[2H]-naphtho[1,2-b]pyran, reference compound]	3.75	–	–	–	–
COc1ccc(C2(C(C)(C)C)C=Cc3ccc4ccccc4c3O2)cc1 (centres unmarked) [Comparative Example 4, 2-(4-methoxyphenyl)-2-t-butyl-[2H]naphtho[1,2-b]pyran, reference compound]	> 30	–	–	–	–
COC(=O)c1c2c(c3ccccc3c1O)OC(c1ccc(OC)cc1)(c1ccc(OC)cc1)C=C2 [Example 1, 2,2-bis(4-methoxyphenyl)-5-methoxycarbonyl-6-hydroxy-[2H]-naphtho[1,2-b]pyran]	–	3.92	0.18	0.47 Δ OD/Min	497
COC(=O)c1c2c(c3ccccc3c1OC)OC(c1ccc(OC)cc1)(c1ccc(OC)cc1)C=C2 [Example 2, 2,2-bis(4-methoxyphenyl)-5-methoxycarbonyl-6-methoxy-[2H]-naphtho[1,2-b]pyran]	–	5.08	0.48	0.81 Δ OD/Min	510
CCOC(=O)COc1c(C(=O)OC)c2c(c3ccccc13)OC(c1ccc(OC)cc1)(c1ccc(OC)cc1)C=C2 [Example 3, 2,2-bis(4-methoxyphenyl)-5-methoxycarbonyl-6-ethoxycarbonylmethoxy-[2H]-naphtho[1,2-b]pyran]	–	3.52	0.44	0.79 Δ OD/Min	508
COC(=O)c1c2c(c3ccccc3c1OC(C)=O)OC(c1ccc(OC)cc1)(C(C)(C)C)C=C2 (centres unmarked) [Example 4, 2-(4-methoxyphenyl)-2-t-butyl-5-methoxycarbonyl-6-acetoxy-[2H]naphtho[1,2-b]pyran]	7.22	–	–	–	–
COC(=O)c1c2c(c3ccccc3c1OCC#N)OC(c1ccccc1)(c1ccc(OC)cc1)C=C2 (centres unmarked) [Example 5, 2-(4-methoxyphenyl)-2-phenyl-5-methoxycarbonyl-6-(cyanomethoxy)-[2H]-naphtho [1,2-b]pyran]	–	–	–	–	494
COC(=O)Oc1c(C(=O)OC)c2c(c3ccccc13)OC(c1ccc(C)cc1)(c1ccc(C)cc1)C=C2 [Example 6, 2,2-bis(4-methylphenyl)-5-methoxycarbonyl-6-(methoxycarbonyloxy)-[2H]-naphtho[1,2-b]pyran]	–	1.67	0.17	0.32 Δ OD/Min	482
COC(=O)c1c2c(c3ccccc3c1OC(C)=O)OC(c1ccccc1)(c1ccccc1)C=C2 [Example 7, 2,2-diphenyl-5-methoxycarbonyl-6-acetoxy-[2H]-naphtho[1,2-b]pyran]	3.67	–	–	–	–
COC(=O)c1c2c(c3ccccc3c1C)OC(c1ccc(OC)cc1)(c1ccc(OC)cc1)C=C2 [Example 8, 2,2-bis(4-methoxyphenyl)-5-methoxycarbonyl-6-methyl-[2H]-naphtho[1,2-b]pyran]	–	3.62	0.42	0.63 Δ OD/Min	476
COC(=O)c1c2c(c3cc(OC)ccc3c1C)OC(c1ccc(OC)cc1)(c1ccc(OC)cc1)C=C2 [Example 9, 2,2-bis(4-methoxyphenyl)-5-methoxycarbonyl-6-methyl-9-methoxy-[2H]-naphtho[1,2-b]pyran]	–	6.27	0.58	0.58 Δ OD/Min	522
CCC(=O)Oc1c(C(=O)OC)c2c(c3ccccc13)OC(c1ccccc1)(c1ccccc1)C=C2 [Example 10, 2,2-diphenyl-5-methoxycarbonyl-6-(propionyloxy)-[2H]-naphtho[1,2-b]pyran]	–	4.28	0.19	0.39 Δ OD/Min	470
COC(=O)c1c2c(c3ccccc3c1OC(C)=O)OC(c1cccc(C(F)(F)F)c1)(c1cccc(C(F)(F)F)c1)C=C2 [Example 11, 2,2-bis(3-trifluoromethylphenyl)-5-methoxycarbonyl-6-acetoxy-[2H]-naphtho[1,2-b]pyran]	–	3.63	0.08	0.15 Δ OD/Min	455
CCOC(=O)COc1c(C(=O)OC)c2c(c3ccccc13)OC(c1ccc(OC)cc1)(c1ccc3c(c1)CC(C)O3)C=C2 (centres unmarked) [Example 12, 2-(4-methoxyphenyl)-2-(2-methyl-2,3-dihydrobenzofur-5-yl)-5-methoxycarbonyl-6-ethoxycarbonylmethoxy-[2H]-naphtho[1,2-b]pyran]	–	4.6	0.53	0.83 Δ OD/Min	517
COC(=O)c1c2c(c3ccccc3c1OC)OC1(C=C2)C2CC3CC(C2)CC1C3 (centres unmarked) [Example 13, 2,2'-spiroadamantylene-5-methoxycarbonyl-6-methoxy-[2H]-naphtho[1,2-b]pyran]	1.63	–	–	–	–
